Experimental data from patent US12209096B2, “Compounds and compositions for inducing chondrogenesis” (NOVARTIS AG, priority 2017, dated 2025).
Read-outs that look alike come from different tables or passages of the source.

Tested on: NHACs
Test: calcium flux assay
Type: cell-based, human
Details: for Emax: read-out: (A) % Efficacy
Protocol: NHACs were plated in 1536 Greiner plate at 2000 cells/well in 4 ul volume. 24 hours later, 4 ul of Calcium 5 dye solution (Hank's Balanced Salt/HEPES buffer containing 5 mM of Probenecid) was then added and incubated for 1 hour at room temperature. Fluorescence readings at excitation wavelength of 470-495 nm and emission wavelength of 515-575 nm were done using FLIPR high-throughput screening system (Molecular Devices, Sunnyvale, CA). The test compound was then added to each well at the indicated dose. Signal was measured prior compound dispense and after using a first interval of 1 second for 60 reads and second interval of 3 second for 20 reads. Data was analyzed using Molecular Devices ScreenWorks® Software.

| SMILES | EC50 (Homo sapiens) [µM] | Emax (Homo sapiens) [%] | (A) % Efficacy [%] | EC50 [µM] |
| --- | --- | --- | --- | --- |
| O=C(Nc1ccc(Cl)c(Cl)c1)[C@@H]1[C@@H](c2cc(F)ncc2F)[C@H]2O[C@@H]1C[C@@H]2O [Example 147, (1R,2R,3S,4R,5S)—N-(3,4-dichlorophenyl)-3-(2,5-difluoropyridin-4-yl)-5-hydroxy-7-oxabicyclo[2.2.1]heptane-2-carboxamide] | 28 | 284 | – | – |
| O=C(Nc1ccc(Cl)c(Cl)c1)[C@H]1[C@@H](c2cccc(C(F)(F)F)n2)[C@H]2O[C@@H]1C[C@@H]2O [Example 50, (1R,2S,3S,4R,5S)—N-(3,4-dichlorophenyl)-5-hydroxy-3-(6-(trifluoromethyl)pyridin-2-yl)-7-oxabicyclo[2.2.1]heptane-2-carboxamide] | 21 | 308 | – | – |
| Cc1cc([C@H]2[C@H]3O[C@H]([C@H](O)[C@@H]3O)[C@@H]2C(=O)Nc2cnc(Cl)c(Cl)c2)ccn1 [Example 162, (1S,2R,3S,4R,5S,6R)—N-(5,6-dichloropyridin-3-yl)-5,6-dihydroxy-3-(2-methylpyridin-4-yl)-7-oxabicyclo[2.2.1]heptane-2-carboxamide] | > 50 | 25 | – | – |
| Cc1cc([C@H]2[C@H]3O[C@H](C[C@H]3F)[C@@H]2C(=O)Nc2cccc(OC(F)(F)F)c2)ccn1 [Example 99, (1R,2R,3S,4R,5R)-5-fluoro-3-(2-methylpyridin-4-yl)-N-(3-(trifluoromethoxy)phenyl)-7-oxabicyclo[2.2.1]heptane-2-carboxamide] | 18 | 383 | – | – |
| Cc1cc([C@H]2[C@H]3O[C@H]([C@@H]4C[C@@H]43)[C@H]2C(=O)Nc2cnc(Cl)c(Cl)c2)ccn1 (single isomer, unassigned) [Example 45] | 14 | 32 | – | – |
| Cc1cc([C@@H]2[C@@H](C(=O)Nc3cnc(Cl)c(Cl)c3)[C@@H]3O[C@H]2C[C@H]3F)ccn1 [Example 110, (1S,2R,3S,4S,6R)—N-(5,6-dichloropyridin-3-yl)-6-fluoro-3-(2-methylpyridin-4-yl)-7-oxabicyclo[2.2.1]heptane-2-carboxamide] | 28 | 199 | – | – |
| O=C(Nc1cnc(Cl)c(Cl)c1)[C@H]1[C@@H](c2ccncc2)[C@H]2O[C@@H]1C[C@@H]2O (single isomer, unassigned) [Example 10a] | > 50 | 55 | – | – |
| Nc1ncc([C@H]2[C@H]3O[C@H](C[C@@H]3F)[C@@H]2C(=O)Nc2ccc(Cl)c(Cl)c2)cn1 [Example 113, (1R,2R,3S,4R,5S)-3-(2-aminopyrimidin-5-yl)-N-(3,4-dichlorophenyl)-5-fluoro-7-oxabicyclo[2.2.1]heptane-2-carboxamide] | 30 | 103 | – | – |
| O=C(Nc1cccc(C(F)(F)F)c1)[C@@H]1[C@@H]2O[C@@H]([C@H]3C[C@H]32)[C@@H]1c1ccnc(F)c1 [Example 41, (1S,2S,4R,5R,6S,7S)-7-(2-fluoropyridin-4-yl)-N-(3-(trifluoromethyl)phenyl)-8-oxatricyclo[3.2.1.0^2,4]octane-6-carboxamide] | 24 | 121 | – | – |
| O=C(Nc1cccc(C(F)(F)F)c1)[C@H]1[C@@H]2O[C@@H]([C@H]3C[C@H]32)[C@@H]1c1ccnc(F)c1 [Example 134, (1S,2S,4R,5R,6R,7S)-7-(2-fluoropyridin-4-yl)-N-(3-(trifluoromethyl)phenyl)-8-oxatricyclo[3.2.1.0^2,4]octane-6-carboxamide] | 19 | 249 | – | – |
| CN(C)c1ncc([C@H]2[C@H]3O[C@H](C[C@@H]3O)[C@H]2C(=O)Nc2ccc(Cl)c(Cl)c2)cn1 [Example 55, (1R,2S,3S,4R,5S)—N-(3,4-dichlorophenyl)-3-(2-(dimethylamino)pyrimidin-5-yl)-5-hydroxy-7-oxabicyclo[2.2.1]heptane-2-carboxamide] | > 50 | 0 | – | – |
| Cc1cc([C@@H]2[C@@H]3O[C@@H]([C@H]4C[C@H]43)[C@H]2C(=O)Nc2cccc(C(F)(F)F)c2)ccn1 (single isomer, unassigned) [Example 121b] | 22 | 92 | – | – |
| Cc1cc([C@H]2[C@H]3O[C@H](C[C@@H]3O)[C@H]2C(=O)Nc2cnc(Cl)c(Cl)c2)ccn1 [Example 6, (1R,2S,3S,4R,5S)-N-(5,-6-dichloropyridin-3-yl)-5-hydroxy-3-(2-methylpyridin-4-yl)-7-oxabicyclo[2.2.1]heptane-2-carboxamide] | – | – | 17 | > 50 |
| Cc1cc([C@H]2[C@H]3O[C@H](C[C@@H]3F)[C@@H]2C(=O)Nc2cccc(C(F)(F)F)c2)ccn1 [Example 107, (1R,2R,3S,4R,5S)-5-fluoro-3-(2-methylpyridin-4-yl)-N-(3-(trifluoromethyl)phenyl)-7-oxabicyclo[2.2.1]heptane-2-carboxamide] | 12 | 139 | – | – |
| Cc1cc([C@H]2[C@H]3O[C@H]([C@@H]4C[C@@H]43)[C@@H]2C(=O)Nc2ccc(Cl)c(F)c2)ccn1 [Example 68, (1S,2S,4R,5R,6R,7S)—N-(4-chloro-3-fluorophenyl)-7-(2-methylpyridin-4-yl)-8-oxatricyclo[3.2.1.0^2,4]octane-6-carboxamide] | 15 | 306 | – | – |
| O=C(Nc1ccc(Cl)c(Cl)c1)[C@@H]1[C@@H]2O[C@@H]([C@H]3C[C@H]32)[C@@H]1c1ccnc(F)c1 [Example 25, (1S,2S,4R,5R,6S,7S)-N-(3,4-dichlorophenyl)-7-(2-fluoropyridin-4-yl)-8-oxatricyclo[3.2.1.0^2,4]octane-6-carboxamide] | 17 | 52 | – | – |
| COc1cc([C@@H]2[C@@H]3O[C@@H](C[C@H]3O)[C@@H]2C(=O)Nc2ccc(Cl)c(Cl)c2)ccn1 (single isomer, unassigned) [Example 49b] | > 50 | 31 | – | – |
| Cc1ncc([C@H]2[C@H]3O[C@H](C[C@@H]3O)[C@H]2C(=O)Nc2ccc(Cl)c(Cl)c2)cn1 [Example 56, (1R,2S,3S,4R,5S)—N-(3,4-dichlorophenyl)-5-hydroxy-3-(2-methylpyrimidin-5-yl)-7-oxabicyclo[2.2.1]heptane-2-carboxamide] | > 50 | 0 | – | – |
| COc1cc([C@H]2[C@H]3O[C@H]([C@@H]4C[C@@H]43)[C@@H]2C(=O)Nc2ccc(Cl)c(Cl)c2)ccn1 [Example 118, (1S,2S,4R,5R,6R,7S)—N-(3,4-dichlorophenyl)-7-(2-methoxypyridin-4-yl)-8-oxatricyclo[3.2.1.0^2,4]octane-6-carboxamide] | 8.2 | 118 | – | – |
| Cc1cc([C@H]2[C@H]3O[C@H](C[C@H]3F)[C@H]2C(=O)Nc2cccc(C(F)(F)F)c2)ccn1 [Example 15, (1R,2S,3S,4R,5R)-5-fluoro-3-(2-methylpyridin-4-yl)-N-[3-(trifluoromethyl)phenyl]-7-oxabicyclo[2.2.1]heptane-2-carboxamide] | > 50 | 0 | – | – |
| O=C(Nc1cnc(Cl)c(Cl)c1)[C@@H]1[C@@H](c2ccnc(F)c2F)[C@H]2O[C@@H]1C[C@@H]2O [Example 91, (1R,2R,3S,4R,5S)—N-(5,6-dichloropyridin-3-yl)-3-(2,3-difluoropyridin-4-yl)-5-hydroxy-7-oxabicyclo[2.2.1]heptane-2-carboxamide] | 4.4 | 66 | – | – |
| COc1cc([C@H]2[C@H]3O[C@H](C[C@@H]3O)[C@H]2C(=O)Nc2ccc(Cl)c(Cl)c2)ccn1 (single isomer, unassigned) [Example 49a] | 0.84 | 53 | – | – |
| O=C(Nc1cccc(C(F)(F)F)c1)[C@@H]1[C@@H](c2ccncc2)[C@H]2O[C@@H]1C[C@@H]2O [Example 88, (1R,2R,3S,4R,5S)-5-hydroxy-3-(pyridin-4-yl)-N-(3-(trifluoromethyl)phenyl)-7-oxabicyclo[2.2.1]heptane-2-carboxamide] | > 50 | 27 | – | – |
| Cc1cc([C@@H]2[C@@H]3O[C@@H](C[C@H]3O)[C@@H]2C(=O)Nc2ccc(Cl)c(Cl)c2)ccn1 (single isomer, unassigned) [Example 53b] | > 50 | 119 | – | – |
| O=C(Nc1ccc(Cl)c(Cl)c1)[C@H]1[C@@H]2O[C@@H](C[C@H]2F)[C@@H]1c1ccnc(F)c1 [Example 112, (1S,2R,3S,4S,6R)—N-(3,4-dichlorophenyl)-6-fluoro-3-(2-fluoropyridin-4-yl)-7-oxabicyclo[2.2.1]heptane-2-carboxamide] | 28 | 99 | – | – |
| Cc1ccc([C@H]2[C@H]3O[C@H](C[C@H]3F)[C@H]2C(=O)Nc2ccc(Cl)c(Cl)c2)cn1 [Example 64, (1R,2S,3S,4R,5R)—N-(3,4-dichlorophenyl)-5-fluoro-3-(6-methylpyridin-3-yl)-7-oxabicyclo[2.2.1]heptane-2-carboxamide] | 21 | 253 | – | – |
| Cc1cc([C@H]2[C@H]3O[C@H](C[C@@H]3F)[C@H]2C(=O)Nc2cccc(C(F)(F)F)c2)ccn1 [Example 17, (1R,2S,3S,4R,5S)-5-fluoro-3-(2-methylpyridin-4-yl)-N-[3-(trifluoromethyl)phenyl]-7-oxabicyclo[2.2.1]heptane-2-carboxamide] | > 50 | 0 | – | – |
| Cc1ncc([C@H]2[C@H]3O[C@H]([C@@H]4C[C@@H]43)[C@H]2C(=O)Nc2ccc(Cl)c(Cl)c2)cn1 [Example 42, (1S,2S,4R,5R,6S,7S)—N-(3,4-dichlorophenyl)-7-(2-methylpyrimidin-5-yl)-8-oxatricyclo[3.2.1.0^2,4]octane-6-carboxamide] | 18 | 57 | – | – |
| O=C(Nc1ccc(Cl)c(Cl)c1)[C@H]1[C@@H]2O[C@@H]([C@H]3C[C@H]32)[C@@H]1c1ccncc1 [Example 137, (1S,2S,4R,5R,6R,7S)—N-(3,4-dichlorophenyl)-7-(pyridin-4-yl)-8-oxatricyclo[3.2.1.0^2,4]octane-6-carboxamide] | 21 | 202 | – | – |
